These results are taken from patent US7691858B2, “Kinase inhibitors and methods of use thereof” (TargeGen, Inc., priority 2006, dated 2010).

The subject of one assay is VEGF-induced edema. Kind of assay: Miles assay, VEGF as agonist. The conditions noted are these: vehicle 12; for Score (scale of 0-12): VEGF 200 ng/site, lower score = greater anti-edema activity; for Score with VEGF as agonist (scale of 0-12): 1.5 mg/kg, VEGF 200 ng/injection site. Type of assay: in vivo, Sprague-Dawley rats. The protocol: A rodent model of vascular edema, the Miles assay, was used to screen compounds for their ability to inhibit VEGF-induced edema. […] Sprague-Dawley rats were first injected IV with vehicle alone or test agent, followed by IV injection of Evans blue dye, followed by intradermal injections of saline and VEGF (200 ng/injection site) along both shaved flanks.

The target in assay [1] is T1, human p120γ subunit of PI3K (Homo sapiens, UniProt P48736).
T1 construct: purchased Upstate Group, Charlottesville, Va; (contract assay)
Kind of assay: PI3K enzymatic activity at two concentrations (Upstate Group). Type of assay: biochemical. The conditions noted are these: 100% = no inhibition, 0% = complete inhibition. The protocol: The ability of compounds to inhibit the activity of PI3K kinase was determined using biochemical assays. In a first assay, compounds were tested at two concentrations (0.5 and 5 μM) for their ability to inhibit enzymatic activity of the human p120γ subunit of PI3K (the assay being performed under contract by Upstate Group, Charlottesville, Va.).

In another assay the test system is myocardial infarct. Nature of the assay: Rodent model of acute myocardial infarct (LAD occlusion/reperfusion). Type of assay: in vivo, Sprague-Dawley rats. The protocol:
A rodent model of acute myocardial infarct, in which the proximal left anterior descending coronary artery (LAD) is occluded for 60 min followed by reperfusion, was used to determine whether test agents reduced infarct size at 24 hours.
Myocardial infarcts were created in Sprague-Dawley rats (200-300 g body weight) by a 60 min occlusion of the LAD followed by LAD reperfusion. […] At 24 hr post-treatment, the ischemic zone (area at-risk, AAR) was delineated by re-ligation of the LAD followed by IV injection of alkali blue dye, after which hearts were sectioned along the short axis and stained using triphenyltetrazolium chloride to delineate viable from infarcted myocardium. Photographic images were then analyzed using morphometric software to calculate infarct area as a percent of the at-risk area.
Rodent MI model: All animal studies followed current “NIH Guidelines for the Use of Laboratory Animals” and were performed according to IACUC-approved protocols. Sprague-Dawley rats (275-300 g) were anesthetized using inhaled isoflurane after which chest walls were shaved and swabbed with iodine. Animals were then intubated and maintained on 2% isoflurane (delivered in 30% O2/70% N2), with optimal respiratory rate and stroke volumes set by a volume-controlled safety ventilator (Inspira Advanced Safety Ventilator; Harvard Apparatus, Holliston, Mass.). Body temperatures were maintained at 35-37° C. using heating pads and five-lead electrocardiograms established. For each animal, a left thoracotomy was performed at the third intercostal space, the heart was exposed and a suture snare tightened around the LAD at the point it appeared from beneath the left atrium. Ischemia was confirmed from blanching of the left ventricle (LV) as well as changes in ECG patterns. After the desired period of occlusion (60 min in the standard model), the suture snare was loosened to allow complete reperfusion (but retained in place using shallow sutures) and the chest closed in layers. […].
For infarct size determination, LAD occlusion was repeated on each animal 24 hr after the initial occlusion. The ischemic zone (area-at-risk or AAR) was then delineated by i.v. injection of Evans blue dye (5 ml of a 10% saline solution containing 100 U/ml sodium heparin). The heart was explanted, atria and right ventricle trimmed free, and the LV (septal and free walls) frozen at −20° C. to induce rigor. After thawing on ice, the LV was subdivided into six 2 mm thick sections along the short axis using a metal form to guide dissection. Heart sections were stained for 20 min in 37° C. triphenyltetrazolium chloride (TTC, 2% in 0.04 M K2HPO4/0.17 M sucrose) to delineate viable from infarcted myocardium, fixed for 20 min in 10% formalin, then rinsed in saline. For each section, photographs were taken of both anterior and posterior surfaces and these images analyzed (by personnel blinded as to treatment identity) using a morphometric software package (Image Pro Plus; Media Cybernetics, Silver Spring, Md.). The following areas were calculated, based on their differing pixel densities: non-ischemic zone (Evans blue-stained), viable-but-ischemic zone (free of Evans blue but TTC-stained), and infarct-within-ischemic zone (free of both Evans blue and TTC stain). Area values for anterior and posterior views were averaged, and these values used to calculate the following AAR=Viable-but-ischemic Area+Infarct Area Equation 1 Total LV Area=AAR+Non-ischemic Area Equation 2

In another assay the test system is cerebral infarct. Nature of the assay: Rodent model of cerebral stroke (permanent middle cerebral artery occlusion). It counts as in vivo, mice. The conditions noted are these: 1 mg/kg BW IV 60 min after ligation; for % Infarct reduction: vs vehicle; for Infarct area in mm^3 (mean ± SEM): 24 hours. The protocol: A rodent model of cerebral stroke, in which the middle cerebral artery is permanently occluded, was used to determine whether test agents reduced infarct size at 24 hours.
Cerebral strokes were created in mice by permanent ligation of the middle cerebral artery using a cauterizing tool, followed 60 min later by IV injection of either vehicle alone (50% PEG400 in water) or test agents (at 1 mg/kg BW). Twenty four hours later, brains were sectioned and stained using triphenyltetrazolium chloride to delineate viable from infarcted tissue. Photographic images were then analyzed using morphometric software to calculate infarct area.

A further assay has as its system histamine-induced edema. Nature of the assay: Miles assay, histamine as agonist. Type of assay: in vivo, Sprague-Dawley rats. The conditions noted are these: 1.5 mg/kg; histamine 10 μg/injection site; vehicle 12. The method, then: Sprague-Dawley rats were first injected IV with vehicle alone or test agent, followed by IV injection of Evans blue dye, followed by intradermal injections of saline and VEGF (200 ng/injection site) along both shaved flanks. […] The ability of test agents to influence edema induced by agonists other than VEGF was also tested. Compounds cited in this application inhibited edema formation induced using histamine as an agonist, for example, as shown below. The ability of test agent to influence vascular edema was tested as above, except that the ability to block edema was tested using either VEGF or histamine as the agonist (200 ng and 10 μg/injection site, respectively).

Where [2] appears, read: 1.5 mg/kg BW IV at 90 min post-reperfusion, 24 hr.
[3] abbreviates: 1.5 mg/kg BW IV at 90 min post-reperfusion, vs vehicle.

Counter-ions that a name gives are not always drawn.

T1 sequence (P48736 whole entry): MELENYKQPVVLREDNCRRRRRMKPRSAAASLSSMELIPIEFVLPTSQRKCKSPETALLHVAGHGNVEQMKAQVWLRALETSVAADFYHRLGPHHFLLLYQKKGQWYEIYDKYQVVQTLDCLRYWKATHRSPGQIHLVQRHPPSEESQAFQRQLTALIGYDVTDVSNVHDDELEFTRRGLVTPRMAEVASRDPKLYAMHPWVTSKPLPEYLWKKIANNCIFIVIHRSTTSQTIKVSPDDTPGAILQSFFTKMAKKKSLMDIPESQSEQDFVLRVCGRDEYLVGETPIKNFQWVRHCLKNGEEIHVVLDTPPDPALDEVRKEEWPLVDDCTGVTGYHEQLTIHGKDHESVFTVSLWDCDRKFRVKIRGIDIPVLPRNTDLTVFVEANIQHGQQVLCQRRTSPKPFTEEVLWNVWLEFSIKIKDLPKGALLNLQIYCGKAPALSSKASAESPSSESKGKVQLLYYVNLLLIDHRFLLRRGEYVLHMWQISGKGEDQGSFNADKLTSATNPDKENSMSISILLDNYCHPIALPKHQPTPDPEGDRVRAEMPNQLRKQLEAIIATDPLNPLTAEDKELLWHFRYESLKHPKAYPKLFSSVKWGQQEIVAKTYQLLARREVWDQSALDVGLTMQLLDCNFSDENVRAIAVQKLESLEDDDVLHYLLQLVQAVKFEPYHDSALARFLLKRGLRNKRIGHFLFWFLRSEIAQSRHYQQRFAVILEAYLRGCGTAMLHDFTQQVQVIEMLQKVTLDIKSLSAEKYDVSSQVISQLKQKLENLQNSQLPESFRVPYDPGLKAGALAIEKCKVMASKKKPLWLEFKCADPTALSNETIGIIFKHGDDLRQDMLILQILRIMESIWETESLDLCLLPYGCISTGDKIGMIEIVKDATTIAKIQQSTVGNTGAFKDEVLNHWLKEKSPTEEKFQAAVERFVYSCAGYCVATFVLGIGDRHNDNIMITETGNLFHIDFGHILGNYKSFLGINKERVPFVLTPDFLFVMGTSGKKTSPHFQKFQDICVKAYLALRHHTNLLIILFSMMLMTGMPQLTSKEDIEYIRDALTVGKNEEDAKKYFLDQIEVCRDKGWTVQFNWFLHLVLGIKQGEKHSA

Regarding `Nc1cncc2nc(-c3ccc(O)c(O)c3)c(-c3ccc(O)c(O)c3)nc12` [2,3-(3,4-Dihydroxyphenyl)-pyrido[3,4-b]pyrazin-8-ylamine], in the assay on VEGF-induced edema (0.01 mg/kg IV), the “Score (scale of 0-12)” value is recorded as 6.
With `Nc1cncc2nc(-c3cccc(O)c3)c(-c3cccc(O)c3)nc12` [3,3′-(8-aminopyrido[3,4-]pyrazine-2,3-diyl)diphenol], the “Percent Control Value at 0.5 μM” value in assay [1] (0.5 μM) is recorded as 101%. In assay [1] (5 μM), the “Percent Control Value at 5 μM” value came to 90%.
Take `O=C(Nc1cc2ccccc2[nH]1)c1cc(O)c(O)c(O)c1` [3,4,5-Trihydroxy-N-(1H-indol-2-yl)-benzamide]: in the assay on VEGF-induced edema, the “Score with VEGF as agonist (scale of 0-12)” value (“Score with VEGF as agonist” for short) was 5.
For `O=C(Nc1ccccc1-c1cc2ccccc2[nH]1)c1cc(O)c(O)c(O)c1` [3,4,5-Trihydroxy-N-[2-(1H-indol-2-yl)-phenyl]-benzamide], the “Score with VEGF as agonist” value with VEGF-induced edema turned out to be 4.
Turning to `O=C(CCc1ccc(O)cc1)Nc1ccccc1-c1cc2ccccc2[nH]1` [3-(4-Hydroxy-phenyl)-N-[2-(1H-indol-2-yl)-phenyl]-propionamide], the “Score (scale of 0-12)” value with VEGF-induced edema (1.5 mg/kg IV) was determined as 2.
In the case of `Cl.Cl.Nc1nc(N)c2nc(-c3cccc(O)c3)c(-c3cccc(O)c3)nc2n1` [3-[2,4-diamino-6-(3-hydroxyphenyl)pteridin-7-yl] phenol dihydrochloride salt], the “Score (scale of 0-12)” value in the assay on VEGF-induced edema (0.01 mg/kg IV) was determined as 3; in the assay with VEGF-induced edema (0.1 mg/kg IV), 4; in the assay with VEGF-induced edema (1 mg/kg IV), 4. The “Infarct (% AAR, mean ± SEM)” value amounted to 37.7 ± 5.8 % AAR in the assay on myocardial infarct (0.1 mg/kg BW IV at 90 min post-reperfusion, 24 hr); 24.2 ± 4.9 % AAR in the assay with myocardial infarct (0.1 mg/kg, administration 60 and 240 min post-occlusion, vehicle 54.0 ± 2.9); 21.6 ± 5.7 % AAR with myocardial infarct (0.1 mg/kg, administration 60 min post-occlusion, vehicle 54.0 ± 2.9); 18.8 ± 5.6 % AAR in the assay on myocardial infarct (0.1 mg/kg, administration 120 min post-occlusion, vehicle 54.0 ± 2.9); 19.1 ± 4.0 % AAR with myocardial infarct (0.1 mg/kg, administration 240 min post-occlusion, vehicle 54.0 ± 2.9); 46.4 ± 2.6 % AAR with myocardial infarct (1.0 mg/kg BW IV at 90 min post-reperfusion, 24 hr). Moreover, the “% Infarct reduction” value with myocardial infarct (0.1 mg/kg BW IV at 90 min post-reperfusion, vs vehicle) is 30%; in the assay with myocardial infarct (0.1 mg/kg, administration 60 and 240 min post-occlusion) it was 55%; in the assay with myocardial infarct (0.1 mg/kg, administration 60 min post-occlusion), 60%; with myocardial infarct (0.1 mg/kg, administration 120 min post-occlusion), 65%; in the assay with myocardial infarct (0.1 mg/kg, administration 240 min post-occlusion), 65%; in the assay with myocardial infarct (1.0 mg/kg BW IV at 90 min post-reperfusion, vs vehicle) it was “Not significant”.
For the compound `O=C(Nc1ccccc1-c1cc2ccccc2[nH]1)c1cccnc1C(=O)O` [3-[2-(1H-Indol-2-yl)-phenylcarbamoyl]-pyridine-2-carboxylic acid], the “Score (scale of 0-12)” value in the assay on VEGF-induced edema (0.5 mg/kg IV) is on record as 5.
Regarding `Nc1nc(N)c2nc(-c3ccc(O)cc3)cnc2n1` [4-(2,4-Diamino-pteridin-6-yl)-phenol (sulfate salt)], the “Score (scale of 0-12)” value in the assay on VEGF-induced edema (5 mg/kg IV) was 2.
Consider `Cl.Nc1ncnc2nc(-c3ccc(O)c(O)c3)c(-c3ccc(O)c(O)c3)nc12` [4-[4-amino-6-(3,4-dihydroxyphenyl)pteridin-7-yl]benzene-1,2-diol chloride salt], for which the “Score (scale of 0-12)” value is given as 6 in the assay with VEGF-induced edema (0.01 mg/kg IV), 3 in the assay with VEGF-induced edema (0.1 mg/kg IV) and 5 in the assay with VEGF-induced edema (1 mg/kg IV).
Turning to `Nc1nc(N)c2nc(CNCc3ccc(O)c(O)c3)cnc2n1` [4-{[(2,4-Diamino-pteridin-6-ylmethyl)-amino]-methyl}-benzene-1,2-diol], the “Score (scale of 0-12)” value in the assay with VEGF-induced edema (5 mg/kg IV) is 4.
On to `Nc1ncnc2nc(-c3ccccn3)c(-c3ccccn3)nc12` [6,7-Di-pyridin-2-yl-pteridin-4-ylamine], for which, in the assay on cerebral infarct, the “% Infarct reduction” value was “Not significant”.
As to `Oc1ncnc2nc(-c3ccccc3)c(-c3ccccc3)nc12` [6,7-Diphenyl-pteridin-4-ol], the “Score with VEGF as agonist” value in the assay on VEGF-induced edema was 3.
Turning to `Cl.Nc1nc(N)c2nc(-c3ccc(O)c(O)c3)c(-c3ccc(O)c(O)c3)nc2n1` [6,7-bis(3,4-dihydroxyphenyl)-pteridine-2,4,-diamine, hydrochloride salt], in the assay with myocardial infarct (setting [2]), the “Infarct (% AAR, mean ± SEM)” value turned out to be 36.3 ± 6.3 % AAR. The “% Infarct reduction” value in the assay on myocardial infarct (setting [3]) turned out to be 33%.
For the compound `Nc1ncnc2nc(-c3ccc(O)cc3)c(-c3ccc(O)cc3)nc12.O=S(=O)(O)O` [6,7-bis(4-hydroxyphenyl)-pteridin-4-ylamine sulfate salt], the “Score with VEGF as agonist” value with VEGF-induced edema is reported as 4. In the assay on cerebral infarct, the “Infarct area in mm^3 (mean ± SEM)” value is recorded as 18.3 ± 2.6 mm^3 and the “% Infarct reduction” value is on record as 53%. Further, the “Score with histamine as agonist (scale of 0-12)” value with histamine-induced edema was 3. For the same compound, the “Infarct (% AAR, mean ± SEM)” value with myocardial infarct (setting [2]) came out at 60.6 ± 1.8 % AAR. For the same compound, the “% Infarct reduction” value in the assay on myocardial infarct (setting [3]) was found to be 20%.
For `Nc1nc(N)c2nc(CNCc3ccccn3)cnc2n1` [6-{[(Pyridin-2-ylmethyl)-amino]-methyl}-pteridine-2,4-diamine], in the assay on VEGF-induced edema (0.1 mg/kg IV), the “Score (scale of 0-12)” value is on record as 4.
On to `Cc1ccc(-c2nn(C(C)(C)C)c3ncnc(N)c23)cc1` [PP1, reference compound], for which, in the assay with cerebral infarct, the “Infarct area in mm^3 (mean ± SEM)” value stood at 35.4 ± 6.4 mm^3 and the “% Infarct reduction” value was “Not significant”.
For the compound `CN(C)S(=O)(=O)c1ccc2c(c1)/C(=C/c1cc3c([nH]1)CCCC3)C(=O)N2` [SU6656, reference compound], in the assay with cerebral infarct, the “% Infarct reduction” value is listed as “Not significant”.
